Structures are written as SMILES.

The target of experiment [1] is T1, Sterol O-acyltransferase 1 (Rattus norvegicus) (UniProt O70536).
T1 sequence (whole entry): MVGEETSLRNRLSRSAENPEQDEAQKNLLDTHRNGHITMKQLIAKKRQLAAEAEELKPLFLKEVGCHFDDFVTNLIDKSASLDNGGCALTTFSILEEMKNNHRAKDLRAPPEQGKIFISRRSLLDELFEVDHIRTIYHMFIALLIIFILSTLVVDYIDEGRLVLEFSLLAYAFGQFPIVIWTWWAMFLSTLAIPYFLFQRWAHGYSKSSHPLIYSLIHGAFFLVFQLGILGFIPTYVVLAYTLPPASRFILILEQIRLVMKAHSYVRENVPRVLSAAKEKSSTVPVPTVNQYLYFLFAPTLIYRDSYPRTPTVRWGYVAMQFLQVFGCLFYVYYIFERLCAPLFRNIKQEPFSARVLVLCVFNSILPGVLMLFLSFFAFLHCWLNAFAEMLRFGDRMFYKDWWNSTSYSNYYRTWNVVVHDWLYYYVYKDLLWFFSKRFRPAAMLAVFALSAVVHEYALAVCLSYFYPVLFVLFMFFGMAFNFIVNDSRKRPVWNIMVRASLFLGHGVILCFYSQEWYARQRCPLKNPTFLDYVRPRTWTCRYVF
The experiment can be described thus: In vitro inhibitory activity against acyl-coenzyme A:cholesterol acyltransferase 1 from rat hepatic microsomes at 10 uM.

Experiment [2] relates to Cricetinae gen. sp. The experiment can be described thus: In vivo activity to reduce liver cholesterol esters (hamster) at 5 mg/kg/day. The experiment is classed as functional, Cricetulus griseus.
The target of experiment [3] is T2, Sterol O-acyltransferase 1 (Rattus norvegicus, UniProt O70536).
T2 sequence (O70536 whole entry): T1 sequence (whole entry)
The experiment can be described thus: (§1) In vitro inhibitory activity against Acyl coenzyme A:cholesterol acyltransferase 1 from rat hepatic microsomes at 10 uM.

The subject of experiment [4] is Cricetinae gen. sp. The experiment can be described thus: In vivo activity to reduce liver cholesterol esters (hamster) at 1 mg/kg/day. The experiment is classed as functional, Cricetulus griseus.
The test system of experiment [5] is Cricetinae gen. sp. Description: In vivo activity to reduce liver cholesterol esters (hamster) at 50 mpk. The experiment is classed as functional, Cricetulus griseus.
Experiment [6] deals with T2, Sterol O-acyltransferase 1. The experiment can be described thus: In vitro inhibitory activity against acyl-coenzyme A:cholesterol acyltransferase 1 from rat hepatic microsomes.
The target in experiment [7] is T1, Sterol O-acyltransferase 1 (Rattus norvegicus). The experiment is described as §1.

One may read the inhibition as how much of the control response was suppressed. For the compound `O=C(NC(Cc1ccc(O)cc1)c1ccccc1)C(c1ccccc1)c1ccccc1` (stereo not given), in experiment [1], the inhibition was found to be 92%.
Broadly, the IC50 is the concentration needed to halve the response being measured. `O=C(N[C@H]1c2ccccc2C[C@H]1c1ccc(O)cc1)C(c1ccccc1)c1ccccc1`: the Reduction in experiment [2] and in experiment [4] was 0% throughout. In addition, half-maximal inhibition in experiment [3] (IC50) required 13000 nM.
`O=C(N[C@H]1c2cc(O)ccc2CC[C@@H]1c1ccccc1)C(c1ccccc1)c1ccccc1`: in experiment [5], the Reduction is recorded as 78%. In experiment [6], this compound had an IC50 of 1300 nM. Further, the inhibition in experiment [1] was found to be 94%.
For `O=C(N[C@H]1c2ccccc2CC[C@@H]1c1cccc(O)c1)C(c1ccccc1)c1ccccc1` the same measures were 0%, 700 nM and 98%.
In turn, `O=C(N[C@@H]1c2c(O)cccc2CC[C@@H]1c1ccccc1)C(c1ccccc1)c1ccccc1` gave a Reduction in experiment [5] of 20%.
The same measure, in the same setting: as for `O=C(NC(Cc1ccc(O)cc1)c1cccc(O)c1)C(c1ccccc1)c1ccccc1` (stereo not given), the figure is 0%.
For `COc1ccc2c(c1)C(NC(=O)C(c1ccccc1)c1ccccc1)CCC2` (stereo not given), the Reduction in experiment [5] is listed as 0%.
The compound `O=C(N[C@H]1c2ccccc2CC[C@@H]1c1ccc(O)cc1)C(c1ccccc1)c1ccccc1` gave a Reduction in experiment [5] of 58%. In addition, it took 700 nM to reach half-maximal inhibition in experiment [6] (IC50). Moreover, the inhibition in experiment [1] is 93%.
`COc1ccc2c(c1)[C@H](NC(=O)C(c1ccccc1)c1ccccc1)[C@@H](c1ccc(O)cc1)CC2` yielded a Reduction in experiment [5] of 97%. Also, the IC50 in experiment [6] worked out at 400 nM. The compound further had an inhibition in experiment [1] of 98%.
For `O=C(N[C@@H]1c2cc(O)ccc2CC[C@@H]1c1ccccc1)C(c1ccccc1)c1ccccc1`, the Reduction in experiment [5] is on record as 38%. In addition, half-maximal inhibition in experiment [6] (IC50) was put at 2400 nM. In experiment [1], the inhibition was 84%.
`COc1ccc([C@H]2CCc3ccccc3[C@@H]2NC(=O)C(c2ccccc2)c2ccccc2)cc1` registered a Reduction in experiment [5] of 0%.
`O=C(NC(Cc1ccccc1)c1cccc(O)c1)C(c1ccccc1)c1ccccc1` (stereo not given): in experiment [5], the Reduction was 19%.
Same read-out and setting: as for `O=C(N[C@@H]1c2ccccc2CCC[C@@H]1c1ccc(O)cc1)C(c1ccccc1)c1ccccc1`, the figure is 0%.
Consider `O=C(N[C@@H]1c2ccccc2C[C@@H]1c1ccc(O)cc1)C(c1ccccc1)c1ccccc1`, for which the Reduction in experiment [2] was determined as 88%; in experiment [5] it was 91%; in experiment [4], 73%. The IC50 in experiment [6] is 100 nM; in experiment [3], 40 nM. Further, the inhibition in experiment [1] turned out to be 99%.
On to `COc1ccc([C@H]2CCc3ccccc3[C@H]2NC(=O)C(c2ccccc2)c2ccccc2)cc1`, for which the Reduction in experiment [5] turned out to be 0%.
With `O=C(N[C@@H]1c2cccc(O)c2CC[C@@H]1c1ccccc1)C(c1ccccc1)c1ccccc1`, the Reduction in experiment [5] is given as 0%.
On the same count and under the same terms, as for `COc1ccc([C@H]2CCc3ccc(OC)cc3[C@H]2NC(=O)C(c2ccccc2)c2ccccc2)cc1`, the figure is 0%.
Compound `O=C(NC(Cc1ccccc1)c1ccc(O)cc1)C(c1ccccc1)c1ccccc1` (stereo not given) returned a Reduction in experiment [5] of 69%. The inhibition in experiment [1] came out at 95%.
`O=C(NC1CCCc2ccccc21)C(c1ccccc1)c1ccccc1` (stereo not given) had an inhibition in experiment [7] of 37%.
As for `O=C(NC1c2ccccc2CC1c1ccc(O)cc1)C(c1ccccc1)c1ccccc1` (racemic), the values for the Reduction in experiment [2] and in experiment [4] were 63% and 27%, respectively. Besides, half-maximal inhibition in experiment [3] (IC50) was put at 100 nM.
With `O=C(N[C@@H]1c2cc(O)ccc2CC[C@@H]1c1ccc(O)cc1)C(c1ccccc1)c1ccccc1`, in experiment [5], the Reduction was found to be 0%.
On the same count and under the same terms, as for `Nc1ccc([C@H]2CCc3ccccc3[C@H]2NC(=O)C(c2ccccc2)c2ccccc2)cc1`, the figure is 57%.
In experiment [5], `O=C(N[C@@H]1c2ccccc2OC[C@@H]1c1ccc(O)cc1)C(c1ccccc1)c1ccccc1` gave a Reduction of 0%.
Turning to `COc1ccc(CC(NC(=O)C(c2ccccc2)c2ccccc2)c2ccc(OC)cc2)cc1` (stereo not given), the Reduction in experiment [5] was found to be 32%. In experiment [1], the inhibition is 40%.
In experiment [5], `O=C(N[C@@H]1c2ccccc2CC[C@@H]1c1ccncc1)C(c1ccccc1)c1ccccc1` displayed a Reduction of 39%.
With `COc1ccc(CC(NC(=O)C(c2ccccc2)c2ccccc2)c2ccccc2)cc1` (stereo not given), the Reduction in experiment [5] was found to be 65%. In experiment [1], this compound returned an inhibition of 92%.
`O=C(NC(Cc1ccc(O)cc1)c1ccc(O)cc1)C(c1ccccc1)c1ccccc1` (stereo not given) had a Reduction in experiment [5] of 40%.
In turn, `O=C(N[C@@H]1c2ccccc2CC[C@@H]1c1cccc(O)c1)C(c1ccccc1)c1ccccc1` yielded a Reduction in experiment [5] of 0%. Besides, in experiment [6], the IC50 is 1800 nM. Further, the inhibition in experiment [1] worked out at 77%.
`O=C(N[C@@H]1CCCC[C@@H]1c1ccc(O)cc1)C(c1ccccc1)c1ccccc1`: the Reduction in experiment [5] is on record as 0%. Also, the IC50 in experiment [6] amounted to 3000 nM. In experiment [1], this compound showed an inhibition of 80%.
With `O=C(N[C@H]1c2cccc(O)c2CC[C@@H]1c1ccccc1)C(c1ccccc1)c1ccccc1`, the Reduction in experiment [5] turned out to be 0%.
Take `O=C(N[C@@H]1c2ccccc2CC[C@@H]1c1ccc(O)cc1)C(c1ccccc1)c1ccccc1`: the Reduction in experiment [5] was 16%. For the same compound, the midpoint of inhibition in experiment [6], the IC50, lay at 350 nM. In addition, the inhibition in experiment [1] was 91%.
For `O=C(N[C@H]1CCCC[C@@H]1c1ccc(O)cc1)C(c1ccccc1)c1ccccc1` the same measures were 0%, 600 nM and 94%.
Take `O=C(N[C@H]1c2ccc(O)cc2CC[C@@H]1c1ccccc1)C(c1ccccc1)c1ccccc1`: the Reduction in experiment [5] stood at 0%. Moreover, inhibition in experiment [6] was half-maximal at 900 nM (IC50). In experiment [1], this compound had an inhibition of 92%.
On the same counts, the results for `COc1ccc([C@H]2CCCC[C@@H]2NC(=O)C(c2ccccc2)c2ccccc2)cc1` are 0%, 100 nM and 100%.
Turning to `O=C(N[C@H]1c2ccccc2C[C@@H]1c1ccc(O)cc1)C(c1ccccc1)c1ccccc1`, in experiment [5], the Reduction came to 52%. The IC50 in experiment [6] came to 230 nM. The compound also gave an inhibition in experiment [1] of 99%.
`O=C(N[C@H]1c2ccccc2OC[C@@H]1c1ccc(O)cc1)C(c1ccccc1)c1ccccc1` registered a Reduction in experiment [5] of 0%.
`COc1cccc([C@H]2CCc3ccccc3[C@H]2NC(=O)C(c2ccccc2)c2ccccc2)c1`: the Reduction in experiment [5] was 0%.
Still for that read-out and setting: next, `COc1cccc([C@H]2CCc3ccccc3[C@@H]2NC(=O)C(c2ccccc2)c2ccccc2)c1`: 0%.
In experiment [5], `COc1ccccc1[C@H]1CCc2ccccc2[C@H]1NC(=O)C(c1ccccc1)c1ccccc1` (stereo in doubt; trans) gave a Reduction of 0%.
In turn, `O=C(N[C@@H]1c2ccc(O)cc2CC[C@@H]1c1ccccc1)C(c1ccccc1)c1ccccc1` yielded a Reduction in experiment [5] of 45%. Further, in experiment [6], inhibition was half-maximal at 900 nM (IC50). In addition, the inhibition in experiment [1] was found to be 87%.
On to `COc1ccc(C(Cc2ccccc2)NC(=O)C(c2ccccc2)c2ccccc2)cc1` (stereo not given), for which the Reduction in experiment [5] turned out to be 69%. In experiment [1], this compound came in with an inhibition of 88%.
`O=C(N[C@H]1c2ccccc2CCC[C@@H]1c1ccc(O)cc1)C(c1ccccc1)c1ccccc1` yielded a Reduction in experiment [5] of 61%.
For `COc1ccc([C@H]2CCCC[C@H]2NC(=O)C(c2ccccc2)c2ccccc2)cc1`, the Reduction in experiment [5] was found to be 20%. In experiment [6], the IC50 is 3000 nM. This compound returned an inhibition in experiment [1] of 77%.
As for `O=C(N[C@H]1c2ccccc2CC[C@@H]1c1ccccc1O)C(c1ccccc1)c1ccccc1`, the Reduction in experiment [5] was found to be 0%.

For the origin of these results see ChEMBL document CHEMBL1129040, “Inhibitors of acyl CoA:cholesterol acyltransferase” (J Med Chem, 1996).
